From patent US11179341B2, “Self-righting articles” (priority 2017, dated 2021)

Tested on: Micrococcus lysodeikticus cells
Assay: Lysozyme enzyme activity assay
Type: biochemical
Conditions: micropost tips 80% lysozyme and 20% PEO 200 k, versus uncompressed powder
Experimental: To measure the activity of lysozyme, the assay provided by Sigma Aldrich was used which measures the amount of lysed Micrococcus lysodeikticus cells. Briefly, a 200 unit/mL Lysozyme solution in 50 mM Potassium Phosphate Buffer was added to a 0.015% [w/v] Micrococcus lysodeikticus cell suspension in the same buffer. The decrease was recorded in A450 over 5 minutes. Nine micropost tips were fabricated from 80% lysozyme and 20% PEO 200 k and dissolved sets of three micropost tips together. Triplicate assays were performed on each dissolved solution for a total of nine tests and the results were compared to the results of a solution made with lysozyme that was not compressed into a micropost tip.

## lysozyme
  lysozyme activity after the manufacturing process: maintain their activity
